Source: patent US20140348897A1, “TREATMENT OR REDUCTION OF DENTAL CONDITIONS WITH ASCORBYL ESTERS” (HILL'S PET NUTRITION, INC., priority 2011, published 2014)

Legend:
dental plaque formation [1] = experiment: 8-day GCPI dental plaque quantification model, feeding food coated with ascorbyl palmitate solution; type: in vivo, dogs; conditions: four days
Protocol: Ascorbyl palmitate was assessed for its ability to inhibit dental plaque formation when applied indirectly, i.e., by feeding animals a pet food composition as described. In this experiment, the 8-day GCPI dental plaques quantification model of […] et al. was used ([…] et al. (2007) J. Vet. Dent. 24(1): 14-20). The teeth of the test animals are cleaned at the beginning of the study, after which the animals were fed either a control food (a commercially-available canine pet food composition) or the same food upon which a solution of ascorbyl palmitate in soybean oil was sprayed to a final concentration (w/w) of 0.1% of the total weight of the food. The food coated with the ascorbyl palmitate solution was fed to dogs over a period of four days and dental plaque accumulation was quantified and compared with their dental plaque accumulation while on the control food. […] The GCPI uses a scale of 0-100%.

dental plaque formation [2] = experiment: 24-hour plaque accumulation model, direct application to the teeth with a dental swab; type: in vivo, dog; conditions: dogs
Protocol: Ascorbyl palmitate was assessed for its ability to inhibit dental plaque in 24-hour plaque accumulation model, according to a modification of the method of […] et al. ([…] et al. (2007) J. Vet. Dent. 24(1): 14-20), in which the compound to be tested is directly applied to the teeth as a solution using a dental swab as applicator, and the dental plaque accumulation time was set at 24 hours. A solution of ascorbyl palmitate (0.3 g in 10 mL soybean oil) was administered to the cleaned buccal tooth and gingival surfaces of each dog using a dental swab, in such a manner that 0.3 g of ascorbyl palmitate was applied. Control animals were treated with soybean oil alone. Twenty-four hours after application, the accumulation of dental plaque was quantitatively evaluated using a standardized method designated as the gingival contour plaque index (“GCPI”). […] The GCPI uses a scale of 0-100%.

CCCCCCCCCCCCCCCC(=O)OC[C@H](O)[C@H]1OC(=O)C(O)=C1O [ascorbyl palmitate]
Plaque accumulation average score (GCPI) (dental plaque formation [1]; dogs fed food sprayed with ascorbyl palmitate in soybean oil to 0.1% (w/w) of the food, GCPI scale 0-100%, control food 68.2±11.9): 53.7±12.1% | improvement in plaque accumulation versus control food (dental plaque formation [1]; dogs, food with 0.1% (w/w) ascorbyl palmitate): 21.3% | improvement in plaque accumulation versus soybean oil control (dental plaque formation [2]; 0.3 g applied directly, 24 hours): 27.8% | Plaque accumulation average score (GCPI) (dental plaque formation [2]; 0.3 g in 10 mL soybean oil applied to cleaned buccal tooth and gingival surfaces, 24 hours after application, GCPI scale 0-100%, soybean oil control 24.9±9.4): 18.9±9%
